In patent publication US20170044208A1, “SELECTIVE GLUCOCORTICOID RECEPTOR LIGANDS” (The University of Manchester, priority 2013, published 2017):
Like-named read-outs stand apart in the source and are kept apart here.

Key:
[1] = biological target: T1, Glucocorticoid Receptor (GR) (Homo sapiens, UniProt P04150); assay: Transactivation assay (MMTV-Luc reporter in HeLa cells); assay type: cell-based; details: for Emax / EC50: HeLa; for Emax: 16 h, read-out: TA Max %; for EC50: concentration for half-maximal transactivation, MMTV-Luc, 16 hours, mean, read-out: TA EC50
T1 construct: Cells were transfected the next day with MMTV-Luc (5 μg) and pGL4-hRLuc (0.1 μg); endogenous in cells; host or cells: HeLa
T1 sequence (P04150 1-777): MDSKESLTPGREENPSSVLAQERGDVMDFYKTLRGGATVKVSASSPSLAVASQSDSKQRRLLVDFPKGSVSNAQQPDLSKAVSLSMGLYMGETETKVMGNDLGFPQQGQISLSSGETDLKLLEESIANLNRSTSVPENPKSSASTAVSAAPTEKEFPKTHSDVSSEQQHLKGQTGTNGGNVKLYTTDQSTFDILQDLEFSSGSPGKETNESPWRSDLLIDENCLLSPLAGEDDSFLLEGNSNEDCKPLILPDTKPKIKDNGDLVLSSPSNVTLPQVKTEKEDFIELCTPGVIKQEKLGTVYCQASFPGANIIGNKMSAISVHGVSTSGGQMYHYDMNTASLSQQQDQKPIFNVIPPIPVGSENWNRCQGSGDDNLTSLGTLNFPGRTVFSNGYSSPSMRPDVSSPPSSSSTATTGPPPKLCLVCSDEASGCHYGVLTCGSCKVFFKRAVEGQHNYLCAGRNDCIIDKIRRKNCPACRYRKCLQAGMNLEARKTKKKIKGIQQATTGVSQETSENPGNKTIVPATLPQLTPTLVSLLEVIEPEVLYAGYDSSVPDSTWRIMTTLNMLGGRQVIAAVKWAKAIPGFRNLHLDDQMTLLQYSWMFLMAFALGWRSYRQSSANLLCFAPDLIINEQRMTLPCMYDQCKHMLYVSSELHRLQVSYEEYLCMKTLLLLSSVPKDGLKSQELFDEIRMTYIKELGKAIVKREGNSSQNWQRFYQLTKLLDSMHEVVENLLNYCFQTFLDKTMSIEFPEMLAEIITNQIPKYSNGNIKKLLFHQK
Procedure: (§1) HeLa cells were seeded at 80×10^4 cells/dish in 100 mm dishes. Cells were transfected the next day with MMTV-Luc (5 μg) and pGL4-hRLuc (0.1 μg), in 250 μL of Opti-MEM I using FuGENE HD (15 μL). After 24 hours, cells were trypsinized and seeded into 96-well plates at a density of 8-10×10^4 cells/mL.
Following overnight incubation to allow attachment, cells were treated with the required concentration of compounds, then further incubated for 16 hours. Media was aspirated and cells lysed in 40 μL of 1×PLB.
(§2) Firefly and Renilla luciferase activity was measured using the Dual Luciferase Reporter system following the manufacturer's protocol.
(§3) IC50 and EC50 values were calculated by using GraphPad Prism 5.0. Briefly, luminescence values for luciferase were normalised using the Renilla luminescence values. The normalised values were input into GraphPad Prism 5.0. Non-linear regression analysis was carried out using the “log(concentration) vs. response” equation of the software, with a Hill slope coefficient fixed at 1.
(§4) IC50 and EC50 values are mean values in nM of all IC50/EC50 values for the compound. Max % values are mean values of the Max% activity.

NFkB = assay: Transrepression assay (NFκB-LUC reporter in HeLa cells, TNF stimulated); assay type: cell-based; details: for Emax / IC50: Homo sapiens, HeLa; for Emax: 16 h, read-out: TR Max %
Procedure: as §1, with “NFκB-LUC reporter” for “MMTV-Luc”, “0.25 mL” for “250 μL”, “in to 24-well” for “into 96-well”, “cells/mL. Following overnight incubation, cells were starved for a further 24 hours in DMEM.” for “cells/mL.”
On the day of the experiment, compounds were added to cells one hour prior to the addition of […] (0.5 ng/mL). After a further 16 hours, cells were washed twice with ice-cold PBS, then lysed with 100 μL of 1×PLB.
as §2, §3, §4

GR = biological target: T2, GR (Homo sapiens, UniProt P04150); details: further analyses, Vayssiere et al. 1997; cited from earlier work
T2 sequence (P04150 1-777): T1 sequence (P04150 1-777)

progesterone receptor = biological target: T3, progesterone receptor (Homo sapiens, UniProt P06401); details: cited from earlier work
T3 sequence (P06401 1-933): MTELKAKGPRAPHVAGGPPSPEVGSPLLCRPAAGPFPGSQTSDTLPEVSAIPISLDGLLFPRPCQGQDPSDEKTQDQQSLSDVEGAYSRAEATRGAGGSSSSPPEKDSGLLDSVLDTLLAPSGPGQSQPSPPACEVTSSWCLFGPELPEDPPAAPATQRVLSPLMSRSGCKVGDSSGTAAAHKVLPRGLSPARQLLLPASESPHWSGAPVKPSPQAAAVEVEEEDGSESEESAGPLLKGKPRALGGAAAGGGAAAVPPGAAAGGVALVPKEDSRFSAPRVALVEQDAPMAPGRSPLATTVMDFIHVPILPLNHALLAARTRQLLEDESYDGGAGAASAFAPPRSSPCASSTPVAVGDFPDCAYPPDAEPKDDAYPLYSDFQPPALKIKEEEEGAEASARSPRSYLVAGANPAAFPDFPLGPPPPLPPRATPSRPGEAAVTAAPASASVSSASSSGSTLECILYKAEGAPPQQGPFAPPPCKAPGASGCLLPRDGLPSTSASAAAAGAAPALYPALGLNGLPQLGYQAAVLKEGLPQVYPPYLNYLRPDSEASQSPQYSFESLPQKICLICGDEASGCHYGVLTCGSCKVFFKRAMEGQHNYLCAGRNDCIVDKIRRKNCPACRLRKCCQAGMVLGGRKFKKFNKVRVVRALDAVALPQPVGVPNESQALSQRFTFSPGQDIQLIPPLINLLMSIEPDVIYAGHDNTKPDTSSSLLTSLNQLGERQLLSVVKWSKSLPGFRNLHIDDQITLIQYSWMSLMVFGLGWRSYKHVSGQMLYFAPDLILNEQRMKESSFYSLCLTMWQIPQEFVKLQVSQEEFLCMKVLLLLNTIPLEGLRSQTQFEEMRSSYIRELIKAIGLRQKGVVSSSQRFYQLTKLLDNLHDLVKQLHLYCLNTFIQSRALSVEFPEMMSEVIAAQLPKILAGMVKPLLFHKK

apoptosis = details: cited from earlier work
[2] = concentration for half-maximal repression of NFkB, TNF 0.5 ng/mL, 16 hours, mean, read-out: TR IC50

COc1ccc(CNc2nc([C@@]3(O)[C@H](C)C[C@H]4[C@@H]5CCC6=CC(=O)C=C[C@]6(C)[C@@]5(F)[C@@H](O)C[C@@]43C)cs2)cc1 [Compound 42]
Emax [1]: 0.56%
EC50 [1]: 392 nM
Emax (NFkB): 51.1%
IC50 (NFkB; [2]): 199 nM

C[C@@H]1C[C@H]2[C@@H]3CCC4=CC(=O)C=C[C@]4(C)[C@@]3(F)[C@@H](O)C[C@]2(C)[C@@]1(O)c1csc(N(C)C(=O)c2ccc(F)cc2)n1 [Compound 43]
Emax [1]: 1.63%
EC50 [1]: 86200 nM
Emax (NFkB): 61%
IC50 (NFkB; [2]): 155 nM

C[C@@H]1C[C@H]2[C@@H]3CCC4=CC(=O)C=C[C@]4(C)[C@@]3(F)[C@@H](O)C[C@]2(C)[C@@]1(O)c1csc(NC(=O)c2ccc(F)c(F)c2)n1 [Compound 44]
Emax [1]: 14.6%
EC50 [1]: 914 nM
Emax (NFkB): 41.8%
IC50 (NFkB; [2]): 28.6 nM

Cc1ccc(C(=O)Nc2nc([C@@]3(O)[C@H](C)C[C@H]4[C@@H]5CCC6=CC(=O)C=C[C@]6(C)[C@@]5(F)[C@@H](O)C[C@@]43C)cs2)cc1 [Compound 45]
Emax [1]: 5.74%
EC50 [1]: 8480 nM
Emax (NFkB): 42.3%
IC50 (NFkB; [2]): 20.2 nM

CCOc1ccc(C(=O)Nc2nc([C@@]3(O)[C@H](C)C[C@H]4[C@@H]5CCC6=CC(=O)C=C[C@]6(C)[C@@]5(F)[C@@H](O)C[C@@]43C)cs2)cc1 [Compound 46]
Emax [1]: 9.95%
EC50 [1]: 6650 nM
Emax (NFkB): 55.1%
IC50 (NFkB; [2]): 27 nM

C[C@@H]1C[C@H]2[C@@H]3CCC4=CC(=O)C=C[C@]4(C)[C@@]3(F)[C@@H](O)C[C@]2(C)[C@@]1(O)c1csc(NC(=O)c2ccc(F)nc2)n1 [Compound 47]
Emax [1]: 7.41%
EC50 [1]: 669 nM
Emax (NFkB): 48%
IC50 (NFkB; [2]): 22.9 nM

C[C@@H]1C[C@H]2[C@@H]3CCC4=CC(=O)C=C[C@]4(C)[C@@]3(F)[C@@H](O)C[C@]2(C)[C@@]1(O)C(=O)CO [Dex, dexamethasone, reference compound]
TA % ([1]; comparison table, against maximal activation seen with dexamethasone): 100%
IC50 (NFkB; comparison table, half-maximal repression of NFkB, multiple experiments, read-out: IC50): 2.86 nM
TR % (NFkB; comparison table, maximal NFkB repression compared to Dexamethasone): 100%

C[C@@H]1C[C@H]2[C@@H]3CCC4=CC(=O)C=C[C@]4(C)[C@@]3(F)[C@@H](O)C[C@]2(C)[C@H]1C(=O)CC#N [RU24858]
GR agonist character (GR): low potency, low efficacy full agonist
progesterone receptor activation (progesterone receptor): activating the progesterone receptor
induction of apoptosis (apoptosis): does not induce apoptosis
